Measurements from patent publication US10440955B2, “Methods comprising a biocidal polyamine” (Curza Global, LLC, priority 2013, dated 2019).
Where a name gives a salt, the structure may show the parent alone. Read-outs that look alike come from different tables or passages of the source.

Key:
A. baumannii biofilms = experiment: EBEC, high number biofilms on PEEK membranes, 10^9 to 10^2 CFU/PEEK membrane in 24 hours; assay type: cell-based, Acinetobacter baumannii
Experimental: (§1) In addition to determining the MIC and the MBEC of polyamine compounds against planktonic bacteria and low number biofilms, our group wanted to determine the efficacy of polyamine compounds against high number biofilms. To do so, biofilms were grown on the surface of polyetheretherketone (PEEK) membranes using a membrane biofilm reactor. This reactor is similar to the CDC biofilm reactor, but rather than growing biofilms on coupon surfaces, the reactor was modified to hold PEEK membranes. In short, to grow biofilms within this system, 500 mL of brain heart infusion (BHI) broth were inoculated with 1 mL of a 0.5 McFarland. The reactor was placed on a hot plate set at 34° C. and the bacteria were grown under batch conditions for 24 hours. Following this protocol, biofilms typically grow to 10^9 CFU/PEEK membrane. […] A solution of 10% BHI was then flowed through the reactor at a rate of 6.94 mL/min for an additional 24 hours. PEEK membranes were then removed and placed into 2 mL of CAMHB that contained a desired concentration of polyamine compound or antibiotic. The EBEC was defined as the concentration of antimicrobial required to reduce a biofilm from approximately 10^9 CFU/PEEK membrane to approximately 10^2 CFU/PEEK membrane in a 24-hour period.
(§2) In addition to determining the MIC and the MBEC of compounds against planktonic bacteria and low number biofilms, the efficacy of the compounds of the invention against high number biofilms is determined. To do so, biofilms are grown on the surface of PEEK membranes using a membrane biofilm reactor (Williams, D. L., Haymond, B. S. & Bloebaum, R. D. Use of delrin plastic in a modified CDC biofilm reactor. Res J Microbiol 6, 425-429 (2011); Williams, D. L., Woodbury, K. L., Haymond, B. S., Parker, A. E. & Bloebaum, R. D. A modified CDC biofilm reactor to produce mature biofilms on the surface of PEEK membranes for an in vivo animal model application. Curr Microbiol 62, 1657-1663 (2011); Williams, D. L. et al., In Vivo Efficacy of a Silicone—Cationic Steroid Antimicrobial Coating to Prevent Implant-Related Infection. Biomaterials 33, 8641-8656 (2012); Williams, D. L. et al., Experimental model of biofilm implant-related osteomyelitis to test combination biomaterials using biofilms as initial inocula. J Biomed Mat Res A 100, 1888-1900 (2012)). This reactor is similar to the CDC biofilm reactor, but rather than growing biofilms on coupon surfaces, the reactor was modified to hold PEEK membranes. In short, to grow biofilms within this system, 500 mL of brain heart infusion (BHI) broth is inoculated with 1 mL of a 0.5 McFarland. The reactor is placed on a hot plate set at 34° C. and the bacteria grown under batch conditions for 24 hours. A solution of 10% BHI will then be flowed through the reactor at a rate of 6.94 mL/min for an additional 24 hours. Following this protocol, biofilms typically grow to 10^9 CFU/PEEK membrane. PEEK membranes is removed and placed into 2 mL of CAMHB that contain a desired concentration of the test compound. The EBEC is defined as the concentration of antimicrobial required to reduce a biofilm from approximately 10^9 CFU/PEEK membrane to approximately 10^2 CFU/PEEK membrane in a 24-hour period.
EBEC data were collected to determine the efficacy of CZ-52, CZ-58 and traditional antibiotics against high number biofilms containing approximately 10^9 CFU grown on the surface of a polyetheretherketone (PEEK) membrane. […] In contrast, at 250 μg/mL CZ-52 was able to reduce MRSA biofilms by greater than 7 log10 units in a 24-hour period. Although the MIC of CZ-58 was lower against MRSA compared to A. baumannii, CZ-58 had greater activity against biofilms of A. baumannii than against MRSA biofilms in the EBEC assay. […] Although the MIC of CZ-58 was “high” compared to MICs of traditional antibiotics, the efficacy against biofilms was promising.

MRSA biofilms = experiment: as above; assay type: cell-based, Staphylococcus aureus
Experimental: as §1, §2
EBEC data were collected to determine the efficacy of CZ-52, CZ-58 and traditional antibiotics against high number biofilms containing approximately 10^9 CFU grown on the surface of a polyetheretherketone (PEEK) membrane.

A. baumannii = experiment: MIC, 96-well CAMHB, 10^5 to 10^2 CFU/mL in 24 hours; assay type: cell-based, Acinetobacter baumannii; conditions: for MIC: Acinetobacter baumannii
Experimental: To determine the MIC of polyamine compounds, the protocol described herein was used.
In brief, a 0.5 McFarland of each bacterial isolate was made. A 0.5 McFarland is a measure of turbidity in a liquid sample that contains approximately 1×10^∧8 CFU/mL. The 0.5 McFarland standard was diluted in cation adjusted Mueller Hinton Broth (CAMHB), and 50 μL of broth were added to a well of a 96-well plate. In addition, 50 μL of CAMHB that contained a desired concentration of antimicrobial were also added to the well for a final volume of 100 μL and a final concentration of approximately 5×10^4 CFU/well (which equated to approximately 5×10^5 CFU/mL). Each well contained a desired amount of polyamine compound in order to experimentally determine the MIC. Each 96-well plate was incubated at 37° C. for 24 hours. The contents of each well were plated on tryptic soy agar (TSA). TSA plates were incubated for 37° C. for 24 hours after which the number of CFU were counted and used to calculate the CFU/mL that remained after exposure to varying concentrations of compound. This procedure was repeated n=8 times for each concentration of antimicrobial.
A 0.5 McFarland of A. baumannii is made. A 0.5 McFarland is a measure of turbidity in a liquid sample that contains approximately 7.5×10^7 CFU/mL. The 0.5 McFarland standard is diluted in CAMHB and 50 μL of broth is added to a well of a 96-well plate. In addition, 50 μL of CAMHB that contains a desired concentration of antimicrobial is added to the well for a final volume of 100 μL and a final concentration of approximately 5×10^4 CFU/well (which equates to approximately 5×10^5 CFU/mL). Each well contains a desired amount of CZ compound in order to experimentally determine the MIC. Each 96-well plate is incubated at 37° C. for 24 hours. The contents of each well is plated on tryptic soy agar (TSA). TSA plates is incubated at 37° C. for 24 hours after which the number of CFUs is counted and used to calculate the CFU/mL that remain after exposure to varying concentrations of compound. This procedure is repeated n=8 times for each concentration of antimicrobial. […]

P. aeruginosa = experiment: as above; assay type: cell-based, Pseudomonas aeruginosa; conditions: for MIC: Pseudomonas aeruginosa
Summary of the method: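 Broth microdilution in CAMHB with about 5×10^5 CFU/mL inoculum, incubated 24 h at 37 °C with graded polyamine compound concentrations. Surviving CFU/mL determined by plating each well on TSA for 24 h at 37 °C; n=8 per concentration.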

| Compound | EBEC μg/mL (μM) A. baumannii (A. baumannii biofilms; Table 4) | EBEC μg/mL (μM) A. baumannii (A. baumannii biofilms; Table 4, value in parentheses) | EBEC μg/mL (μM) MRSA (MRSA biofilms; Table 4) | MIC (A. baumannii; read-out: MIC (A. bumannii)) [µM] | also measured |
| --- | --- | --- | --- | --- | --- |
| NCCCNCCCNCc1cc(CNCCCNCCCN)cc(CNCCCNCCCN)c1 [CZ-52, N^1,N^1′,N^1″-(benzene-1,3,5-triyltris(methylene))tris(N^3-(3-aminopropyl)propane-1,3-diamine), hydrochloride salt] | ~7,000 μg/mL | (~14,000) μM | 250 µg/mL |  | EBEC μg/mL (μM) MRSA (MRSA biofilms; Table 4, value in parentheses): (500) μM |
| Polymyxin B sulfate [reference compound] | 1,000 μg/mL | (722) μM |  |  | MICs (μg/mL): A. baumannii (A. baumannii; Table 3A c3): 2 µg/mL; MIC μg/mL (μM) A. baumannii (A. baumannii; Table 4): 1 µg/mL; MIC μg/mL (μM) A. baumannii (A. baumannii; Table 4, value in parentheses): (0.7) μM |
| NCCCNCCCNCc1ccccc1 [CZ-7, benzylnorspermidine] | >10,000 μg/mL | (>45,180) μM | >5,000 μg/mL |  | MIC (A. baumannii; Table 3A c3, read-out: MICs (μg/mL): A. baumannii): > 500 µg/mL; MIC (A. baumannii; Table 4, value in parentheses, read-out: MIC μg/mL (μM) A. baumannii): > 2260 µM; MIC (A. baumannii; Table 4, read-out: MIC μg/mL (μM) A. baumannii): > 500 µg/mL; EBEC μg/mL (μM) MRSA (MRSA biofilms; Table 4, value in parentheses): (>22,590) μM; MIC (P. aeruginosa; Table 3A c2, read-out: MICs (μg/mL): P. aeruginosa): > 500 µg/mL; MIC (P. aeruginosa; Table 5, read-out: MIC (P. aeruginosa)): > 100 µM |
| CN[C@H](CC(C)C)C(=O)N[C@H]1C(=O)N[C@@H](CC(N)=O)C(=O)N[C@H]2C(=O)N[C@H]3C(=O)N[C@H](C(=O)N[C@H](C(=O)O)c4cc(O)cc(O)c4-c4cc3ccc4O)[C@H](O)c3ccc(c(Cl)c3)Oc3cc2cc(c3O[C@@H]2O[C@H](CO)[C@@H](O)[C@H](O)[C@H]2O[C@H]2C[C@](C)(N)[C@H](O)[C@H](C)O2)Oc2ccc(cc2Cl)[C@H]1O [vancomycin, reference compound] |  |  | >>25,000 μg/mL |  | reduction of biofilms of MRSA (MRSA biofilms; at 25,000 μg/mL, 24-hour period): < 1 log10 unit |
| CC(C)CNCCCNCCCNCc1cc(CNCCCNCCCNCC(C)C)cc(-c2ccccc2)c1 [CZ-86, N^1,N^1′-([1,1′-biphenyl]-3,5-diylbis(methylene))bis(N^3-(3-(isobutylamino)propyl)propane-1,3-diamine), hydrochloride salt] |  |  |  | < 50 | MIC (P. aeruginosa) (P. aeruginosa; Table 5): ++ to +++ |
| NCCCNCCCNCc1cccc(CNCCCNCCCN)c1 [CZ-25, N^1,N^1′-(1,3-phenylenebis(methylene))bis(N3-(3-ammoniopropyl)propane-1,3-diaminium) chloride] | ~7,500 μg/mL |  | >5,000 μg/mL | > 100 | MIC (P. aeruginosa; read-out: MICs (μg/mL): P. aeruginosa, Table 3A c2): 500 µg/mL |
| NCCCNCCCNCc1cc(CNCCCNCCCN)cc(-c2ccccc2)c1 [CZ-58, N^1,N^1′-([1,1′-biphenyl]-3,5-diylbis(methylene))bis(N^3-(3-ammoniopropyl)propane-1,3-diaminium) chloride] | 400 µg/mL |  | 1,500 μg/mL | 50 to 100 | MIC (P. aeruginosa) (P. aeruginosa; Table 5): ++ to +++ |
